# Tests used:
# [1] = target: Ba/F3 EML4-ALK v1 I1171N/D1203N (Homo sapiens (Human), UniProt Q9HC35+Q9UM73, D1203N/I1171N); experiment: Ba/F3 cell proliferation assay, EML4-ALK v1 I1171N/D1203N; assay type: cell-based; conditions: for Selectivity for Ba/F3 EML4-ALK v1 I1171N-D1203N IC50 over Ba/F3 ETV6-TRKB IC50 / ETV6-TRKB / EML4-ALK v1 I1171N/D1203N: ratio of Ba/F3 IC50 values, TRKB selectivity; for Selectivity for Ba/F3 EML4-ALK v1 I1171N-D1203N IC50 over Ba/F3 ETV6-TRKB IC50: Table 6 bins; for IC50: Ba/F3 stable cells, 72 hours, CellTiter-Glo
# Ba/F3 EML4-ALK v1 I1171N/D1203N, sequence (Q9UM73 other isoform, or with tags, fused parts or gaps I1171N/D1203N): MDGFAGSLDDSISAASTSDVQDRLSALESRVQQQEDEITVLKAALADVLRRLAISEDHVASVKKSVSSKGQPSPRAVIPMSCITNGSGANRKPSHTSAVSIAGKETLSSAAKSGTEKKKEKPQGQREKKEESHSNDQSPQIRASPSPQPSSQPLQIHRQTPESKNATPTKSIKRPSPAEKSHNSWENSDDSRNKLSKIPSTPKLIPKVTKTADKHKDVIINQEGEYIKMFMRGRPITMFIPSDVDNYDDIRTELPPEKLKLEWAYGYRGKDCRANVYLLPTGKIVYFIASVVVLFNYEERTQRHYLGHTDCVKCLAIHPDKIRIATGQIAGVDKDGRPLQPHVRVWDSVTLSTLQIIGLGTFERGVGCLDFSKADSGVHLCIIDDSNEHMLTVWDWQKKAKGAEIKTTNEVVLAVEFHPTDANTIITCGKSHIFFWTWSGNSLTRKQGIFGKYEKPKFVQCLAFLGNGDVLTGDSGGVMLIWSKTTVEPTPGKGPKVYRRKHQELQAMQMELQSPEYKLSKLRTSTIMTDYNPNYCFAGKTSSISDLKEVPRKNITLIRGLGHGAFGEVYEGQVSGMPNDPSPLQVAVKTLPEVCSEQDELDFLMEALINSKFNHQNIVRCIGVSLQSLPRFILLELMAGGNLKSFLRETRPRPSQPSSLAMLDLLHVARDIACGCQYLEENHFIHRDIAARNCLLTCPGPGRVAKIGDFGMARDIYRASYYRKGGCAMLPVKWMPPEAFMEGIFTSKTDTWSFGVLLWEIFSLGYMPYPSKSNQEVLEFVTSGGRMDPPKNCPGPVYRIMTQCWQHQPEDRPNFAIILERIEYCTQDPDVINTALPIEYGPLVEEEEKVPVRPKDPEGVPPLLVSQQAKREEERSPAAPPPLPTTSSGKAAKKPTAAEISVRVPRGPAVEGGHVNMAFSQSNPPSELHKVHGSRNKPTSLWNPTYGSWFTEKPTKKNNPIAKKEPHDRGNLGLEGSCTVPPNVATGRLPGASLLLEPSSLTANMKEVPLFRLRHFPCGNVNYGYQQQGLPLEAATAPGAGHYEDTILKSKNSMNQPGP
# Excerpt: (§1) Genes encoding EML4-ALK v1 (variant 1), EML4-ALK v1 G1202R, EML4-ALK v1 I1171IN, EML4-ALK v1 D1203N, EML4-ALK v1 I1171N/D1203N, and ETV6-TRKB were synthesized at GeneRay, cloned into the retroviral construct pMSCV-puro (Biovector), and packaged into retroviral particles. The virus was used to infect Ba/F3 cells (RIKEN) at multiplicity of infection=1 for 1 day. Infected cells were rescued in media (RPMI-1640 with 10% fetal bovine serum and 1% streptomycin and penicillin) supplemented with mouse IL-3 (10 ng/mL) for 2 days, and stable cell lines were selected by IL-3 withdrawal and puromycin (0.8 μg/mL) for 7 days. Monoclones were selected by single-cell dilution in IL-3-free medium containing puromycin (0.8 μg/mL). Transformation of desired genes was confirmed by Sanger sequencing and western blot using the following antibodies: ALK (CST #3633) and pan-TRK (Abcam #76291).
# (§2) Stable cells were plated in a 384-well plate. Test compounds were then added in a 3-fold dilution series and incubated for 72 hours. CellTiter-Glo reagent (Promega) was added. Luminescence was measured on a plate reader. Half-maximal inhibitory concentration (ICso) was calculated from percent inhibition and inhibitor concentration using four-parameter logistic regression. Compound potency can be interpreted by binning IC50 values: bin A for high potency, 0.1 nM IC50<50 nM; bin B for medium potency, 50 nM<IC50<500 nM; and bin C for low potency, IC50>500 nM. […] Exemplary data is given in Table 4 (nd is not determined).
# (§3) Ba/F3 proliferation is driven by the transduced oncogenes in the same way that cancer cell proliferation in humans is driven by the expression of equivalent oncogenes.
# TRKB selectivity was calculated by dividing a compound's TRKB potency by its primary target potency (e.g., ETV6-TRKB IC50/EML4-ALK v1 IC50). Compound selectivity can be interpreted by binning ratio values: bin A for very high selectivity, ratio≥30-fold; bin B for high selectivity, ratio≥10-fold but<30; bin C for moderate selectivity, ratio≥1 but<10; and bin D for low selectivity, ratio<1. […] (nd=not determined).
# Additional exemplified compounds were also tested against ALK-INDN and TRKB. The TRKB selectivity was calculated by dividing a compound's TRKB potency by its primary target potency (e.g., ETV6-TRKB IC50/EMIL4-ALK I1171N-D1203N v1 IC50). Compound selectivity can be interpreted by binning ratio values: bin AA for the selectivity with the ratio≥30-fold; bin BB for the selectivity with the ratio≥10-fold but<30; bin CC for the selectivity with the ratio≥5 but<10; bin DD for the selectivity with the ratio≥1 but<5; and bin EE for the selectivity with the ratio<1.
# Ba/F3 ETV6-TRKB = Ba/F3 ETV6-TRKB (Homo sapiens, UniProt Q16620); experiment: Ba/F3 cell proliferation assay, ETV6-TRKB; assay type: cell-based; conditions: Ba/F3 stable cells, 72 hours, CellTiter-Glo; read-out: ETV6-TRKB IC50
# Ba/F3 ETV6-TRKB, sequence (Q16620 32-822 limits assumed, change not shown): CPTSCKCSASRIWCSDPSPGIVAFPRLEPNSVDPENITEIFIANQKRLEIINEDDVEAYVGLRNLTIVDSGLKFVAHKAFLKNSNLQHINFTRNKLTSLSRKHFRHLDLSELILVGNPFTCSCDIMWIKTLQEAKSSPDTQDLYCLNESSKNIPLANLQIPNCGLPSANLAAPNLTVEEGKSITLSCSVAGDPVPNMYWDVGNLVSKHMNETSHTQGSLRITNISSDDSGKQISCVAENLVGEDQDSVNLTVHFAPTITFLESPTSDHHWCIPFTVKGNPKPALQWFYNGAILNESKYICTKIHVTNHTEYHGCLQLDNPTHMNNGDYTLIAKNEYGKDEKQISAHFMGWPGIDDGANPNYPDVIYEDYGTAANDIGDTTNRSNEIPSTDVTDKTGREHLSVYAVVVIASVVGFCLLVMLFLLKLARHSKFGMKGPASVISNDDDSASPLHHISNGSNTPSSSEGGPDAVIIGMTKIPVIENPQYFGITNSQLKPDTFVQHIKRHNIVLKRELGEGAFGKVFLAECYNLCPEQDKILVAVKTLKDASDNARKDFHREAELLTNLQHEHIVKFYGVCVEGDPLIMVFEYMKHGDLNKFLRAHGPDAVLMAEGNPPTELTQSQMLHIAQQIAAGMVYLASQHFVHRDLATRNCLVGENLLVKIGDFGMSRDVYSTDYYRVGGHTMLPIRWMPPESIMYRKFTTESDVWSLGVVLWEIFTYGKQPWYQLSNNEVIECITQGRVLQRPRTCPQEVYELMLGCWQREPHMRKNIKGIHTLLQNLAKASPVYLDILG
# Excerpt: as §1, §2, §3
IC50 [1],IC50 (Ba/F3 ETV6-TRKB),Molecule,Selectivity for Ba/F3 EML4-ALK v1 I1171N-D1203N IC50 over Ba/F3 ETV6-TRKB IC50 [1],ETV6-TRKB / EML4-ALK v1 I1171N/D1203N [1]
,,"CCn1nc2c(c1C#N)-c1cnc(N)c(c1)O[C@H](C)c1cc(F)ccc1-c1ncccc1C2 [Example E12, reference compound]",CC (bin CC for the selectivity with the ratio≥5 but<10),
0.1 to 50 nM,50 to 500 nM,"(R)-22-amino-14,16-difluoro-4-methyl-10,19-dimethyl-7-oxo-20-oxa-9-thia-4,5,11,23-tetraazapentacyclo[19.3.1.0^2,6.0^8,12.0^13,18]pentacosa-1(24),2,5,8(12),10,13,15,17,21(25),22-decaene-3-carbonitrile [Example 80]",,"B (bin B for high selectivity, ratio≥10-fold but<30)"
0.1 to 50 nM,> 500 nM,"C[C@H]1Oc2cc(cnc2N)-c2c(C#N)nn(C)c2C(=O)c2cccnc2-c2ccc(F)cc21 [Example 25, (R)-23-amino-17-fluoro-5-methyl-20-methyl-7-oxo-21-oxa-4,5,12,24-tetraazapentacyclo[20.3.1.0^2,^6.0^8,^13.0^14,^19]hexacosa-1(25),2(6),3,8(13),9,11,14,16,18,22(26),23-undecaene-3-carbonitrile]",AA (bin AA for the selectivity with the ratio≥30-fold),"A (bin A for very high selectivity, ratio≥30-fold)"
0.1 to 50 nM,50 to 500 nM,"C[C@H]1Oc2cc(cnc2N)-c2c(nn(C)c2C#N)Oc2cccnc2-c2c(F)cc(F)cc21 [Example 61, (R)-23-amino-15,17-difluoro-4-methyl-20-methyl-7,21-dioxa-4,5,12,24-tetraazapentacyclo[20.3.1.0^2,^6.0^8,^13.0^14,^19]hexacosa-1(25),2,5,8(13),9,11,14,16,18,22(26),23-undecaene-3-carbonitrile]",,
,,"C[C@H]1Oc2cc(cnc2N)-c2c(nn(C)c2C#N)Cc2cccnc2-c2c(F)cc(F)cc21 [Example E1, reference compound]",BB (bin BB for the selectivity with the ratio≥10-fold but<30),
50 to 500 nM,> 500 nM,"C[C@H]1Oc2cc(cnc2N)-c2c(CC3CC3)nn(C(=O)N(C)C)c2Cc2cn(C)nc2-c2c(F)cc(F)cc21 [Example 23, (19R)-22-amino-3-(cyclopropylmethyl)-14,16-difluoro-N,N,10,19-tetramethyl-20-oxa-4,5,10,11,23-pentaazapentacyclo[19.3.1.0^2,6.0^8,12.0^13,18]pentacosa-1(24),2(6),3,8,11,13,15,17,21(25),22-decaene-5-carboxamide]",,"A (bin A for very high selectivity, ratio≥30-fold)"
0.1 to 50 nM,> 500 nM,"C[C@H]1Oc2cc(cnc2N)-c2c(C#N)nn(C)c2C(=O)c2cccnc2-c2c(F)cc(F)cc21 [Example 22, (R)-23-amino-15,17-difluoro-5-methyl-20-methyl-7-oxo-21-oxa-4,5,12,24-tetraazapentacyclo[20.3.1.0^2,^6.0^8,^13.0^14,^19]hexacosa-1(25),2(6),3,8,10,12,14,16,18,22(26),23-undecaene-3-carbonitrile]",AA (bin AA for the selectivity with the ratio≥30-fold),"A (bin A for very high selectivity, ratio≥30-fold)"
,,"Cc1cc2n(n1)-c1ccc(F)cc1[C@@H](C)Oc1cc(cnc1N)-c1c(C#N)nn(C)c1C2 [Example E3, reference compound]",EE (bin EE for the selectivity with the ratio<1),
50 to 500 nM,> 500 nM,"Cc1nc2c(s1)C(=O)c1c(c(C#N)nn1C)-c1cnc(N)c(c1)O[C@H](C)c1cc(F)ccc1-2 [Example 74, (R)-22-amino-16-fluoro-5-methyl-10,19-dimethyl-7-oxo-20-oxa-9-thia-4,5,11,23-tetraazapentacyclo[19.3.1.0^2,^6.0^8,^12.0^13,^18]pentacosa-1(24),2(6),3,8(12),10,13,15,17,21(25),22-decaene-3-carbonitrile]",CC (bin CC for the selectivity with the ratio≥5 but<10),"C (bin C for moderate selectivity, ratio≥1 but<10)"
,,"CC(C)n1nc2c(c1C#N)-c1cnc(N)c(c1)O[C@H](C)c1cc(F)ccc1-c1ncccc1C2 [Example E5, reference compound]",CC (bin CC for the selectivity with the ratio≥5 but<10),
50 to 500 nM,> 500 nM,"C[C@H]1Oc2cc(cnc2N)-c2c(C#N)nn(C)c2C(=O)c2cn(C)nc2-c2c(F)cc(F)cc21 [Example 28, (R)-22-amino-14,16-difluoro-5,10-dimethyl-19-methyl-7-oxo-20-oxa-4,5,10,11,23-pentaazapentacyclo[19.3.1.0^2,^6.0^8,^12.0^13,^18]pentacosa-1(24),2(6),3,8,11,13,15,17,21(25),22-decaene-3-carbonitrile]",,"A (bin A for very high selectivity, ratio≥30-fold)"
,,"CCn1ncc2c1-c1cnc(N)c(c1)O[C@H](C)c1cc(F)ccc1-c1nn(C)cc1C2 [Example E4, reference compound]",EE (bin EE for the selectivity with the ratio<1),
,,"C[C@H]1Oc2cc(cnc2N)-c2c(nn(C)c2C#N)Cc2cn(C)nc2-c2c(F)cc(F)cc21 [Example E13, reference compound]",BB (bin BB for the selectivity with the ratio≥10-fold but<30),
,,"C[C@H]1Oc2cc(cnc2N)-c2c(cnn2CC2CC2)Cc2cccnc2-c2ccc(F)cc21 [Example E11, reference compound]",DD (bin DD for the selectivity with the ratio≥1 but<5),
,,"C[C@H]1Oc2cc(cnc2N)-c2c(C#N)nn(C)c2Cc2cccnc2-c2c(F)cc(F)cc21 [Example E2, reference compound]",DD (bin DD for the selectivity with the ratio≥1 but<5),
,,"C[C@H]1Oc2cc(cnc2N)-c2c(C#N)nn(C)c2Cc2cccnc2-c2ccc(F)cc21 [Example E8, reference compound]",DD (bin DD for the selectivity with the ratio≥1 but<5),
,,"CCn1ncc2c1-c1cnc(N)c(c1)O[C@H](C)c1cc(F)ccc1-c1ncccc1C2 [Example E10, reference compound]",EE (bin EE for the selectivity with the ratio<1),
,,"C[C@H]1Oc2cc(cnc2N)-c2c(nn(C)c2C#N)Cc2cccnc2-c2ccc(F)cc21 [Example E7, reference compound]",CC (bin CC for the selectivity with the ratio≥5 but<10),
,,"Cc1nc2c(s1)Cc1c(c(C#N)nn1C)-c1cnc(N)c(c1)O[C@H](C)c1cc(F)ccc1-2 [Example E6, reference compound]",EE (bin EE for the selectivity with the ratio<1),

Molecule,IC50 [1],IC50 (Ba/F3 ETV6-TRKB),Selectivity for Ba/F3 EML4-ALK v1 I1171N-D1203N IC50 over Ba/F3 ETV6-TRKB IC50 [1],ETV6-TRKB / EML4-ALK v1 I1171N/D1203N [1]
"CC1Oc2cc(cnc2N)-c2c(c(C#N)nn2CC2CC2)Cc2cn(C)nc2-c2c(F)cc(F)cc21 (centres unmarked) [Example 70, 22-amino-3-(cyclopropylmethyl)-14,16-difluoro-10,19-dimethyl-20-oxa-3,4,10,11,23-pentaazapentacyclo[19.3.1.0^2,^6.0^8,^12.0^13,^18]pentacosa-1(24),2(6),4,8,11,13,15,17,21(25),22-decaene-5-carbonitrile]",> 500 nM,> 500 nM,,"C (bin C for moderate selectivity, ratio≥1 but<10)"
"C[C@H]1Oc2cc(cnc2N)-c2c(C#N)nn(C)c2C(O)c2cn(C)nc2-c2c(F)cc(F)cc21 (stereo partly drawn) [Example 79, (19R)-22-amino-14,16-difluoro-7-hydroxy-5,10-dimethyl-19-methyl-20-oxa-4,5,10,11,23-pentaazapentacyclo[19.3.1.0^2,^6.0^8,^12.0^13,^18]pentacosa-1(24),2(6),3,8,11,13,15,17,21(25),22-decaene-3-carbonitrile]",50 to 500 nM,> 500 nM,,"C (bin C for moderate selectivity, ratio≥1 but<10)"

# Reference: patent US20250326769A1, “HETEROAROMATIC MACROCYCLIC ETHER CHEMOTHERAPEUTIC AGENTS” (Nuvalent, Inc., priority 2022, published 2025)
